Assays:
αVβ3 integrin = biological target: T1, αVβ3 integrin (Homo sapiens, UniProt P05106+P06756); test: Integrin binding assay (ligand-receptor ELISA)
T1 construct: αVβ3 integrin purification from HUVE cell lysates was done as described in Pytela et al; endogenous in cells; host or cells: HUVE cells
Description: αVβ3 integrin purification from HUVE cell lysates was done as described in Pytela et al., Meth. Enzynmol., 144:475-489 (1987). Briefly, 10^8 cells were lysed in 1 ml of PBS containing 1 mM CaCl2, 1 mM MgCl2, 0.5 mM PMSF and 100 mM octylglucoside. The lysate was passed four times through a 0.5 ml column containing RGDSPK Sepharose (prepared from the cyanogen bromide activated Sepharose CL 4B as described in Lam, S. C-T., J. Biol. Chem., 267:5649-5655 (1992). The column was washed with 10 ml of the lysis buffer and the bound protein was eluted with 2 ml of the same buffer containing 1 mM RGDS peptide at room temperature. The αVβ3 integrin was dialyzed against PBS containing 1 mM CaCl2, 1 mM MgCl2, 5 mM octylglucoside and 0.1 mM PMSF with three changes of the dialysis buffer to remove the RGDS peptide. The protein was stored in aliquots at −70° C. The purity of the integrin was determined by SDS-PAGE under non-reducing conditions, followed by silver staining.
The integrin binding assay was developed in accordance with the disclosures in Brooks et al., Cell 85:683-693 (1996), and Lam, S. C-T (1992). Approximately 50 ng of the integrin in a total volume of 50 μl were added per well of 96-well immunological Pro-Bind plates (Falcon) and incubated overnight at 4° C. Non-specific sites were blocked with 20 mg/ml BSA in the same buffer and washed four times in that buffer. Treated plates were incubated with 1 μg/ml Cyr61 or 0.1 μg/ml vitronectin for 3 hours at room temperature. […] The final dilution of the LM609 ascites fluid was 1:200. Bound proteins were detected by specific polyclonal antisera (anti-Cyr61 antiserum was diluted 1:500 and anti-vitronectin antiserum was diluted 1:1000 in PBS containing 1 mM CaCl2, 1 mM MgCl2, and 5 mg/ml BSA) followed by a secondary antibody-horseradish peroxidase conjugate (1:20000 in the same buffer). […] Horseradish peroxidase (HRP) was detected with an HRP immunoassay kit (Bio-Rad Laboratories). The colorimetric reaction was developed for 15-30 minutes at room temperature, stopped by the addition of H2SO4, and the absorbance at 450 nm was measured. […]

platelets = test: Platelet adhesion assay; assay type: cell-based, human
Description: Microtiter wells were coated with purified recombinant Fisp12/mCTGF or Cyr61, and the adhesion of isolated platelets to these proteins was detected with ^125I-mAb15, an anti-β3 monoclonal antibody (Frelinger et al., J. Biol. Chem 265:6346-6352 [1990]). Platelets were obtained from venous blood drawn from healthy donors and collected into acid-citrate-dextrose (ACD). Washed platelets were prepared by diffenential centrifugation as described (Kinlough-Rathbone et al. Thromb. Haemostas 2:291-308 [1997]), and finally resuspended in HEPES-Tyrode's buffer (5 mM HEPES, pH 7.35, 1 mM MgCl2, 1 mM CaCl2, 135 mM NaCl, 2.7 mM KCl, 11.9 mM NaHCO3, 1 mg/ml dextrose and 3.5 mg/ml BSA). The platelet concentration was adjusted to […].
Microtiter wells (Immulon 2 removawell strips, Dynex Technologies, Inc.) were coated with Cyr61, Fisp12/mCTGF, or fibrinogen (25 μg/ml, 50 μl/well) incubated overnight at 22° C., and then blocked with 3% BSA at 37° C. for 2 hours. Washed platelets were added to the wells (100 μl/well) in the presence and absence of platelet agonists and incubated at 37° C. for 30 minutes. The wells were washed with HEPES-Tyrode's buffer and adherent platelets were detected with ^125I-mAb15, an anti-β3 monoclonal antibody. Exposure to the labeled antibody ([…], 50 μl/well) proceeded for 1 hour at 22° C. After extensive washing with HEPES-Tyrode's buffer, bound radioactivity was determined by γ-counting. In inhibition studies, washed platelets were pre-incubated with blocking peptides or antibodies at 37° C. for 15 minutes prior to addition to microtiter wells.
The anti-β3 antibody was radioiodinated with carrier-free Na^125I (Amersham Corp.) using the IODO-BEADS iodination reagent (Pierce) to a specific activity of approximately 2 μCi/μg. […] As controls, BSA- and fibrinogen-coated (KabiVitrum Inc.) wells were also used. Initially, the adhesion of unactivated versus activated platelets to immobilized Fisp12/mCTGF and Cyr61 was compared. To ensure that plateltes were not activated during the washing procedures, PGl2 (100 nM), which inhibits activation by raising platelet cAMP levels, was added to the platelet suspensions. […]

αllbβ3 = biological target: T2, αllbβ3 (Homo sapiens, UniProt P05106+P08514); test: Solid-phase binding assay with purified integrin
T2 construct: from tissue; host or cells: outdated human platelets
Description: In these experiments, activated and unactivated αllbβ3 were purified from platelet lysates. Activated αllbβ3 was purified by RGD affinity chromatography, as described (Knezevic et al., J. Biol. Chem. 271:16416-16421 [1996]). Briefly, outdated human platelets were isolated by differential centrifugation and solubilized in lysis buffer (10 mM HEPES, pH 7.4, 0.15 M NaCl, containing 1 mM CaCl2, 1 mM MgCl2 100 μM leupeptin, 1 mM phenylmethylsulfonyl fluoride, 10 mM-ethylmaleimide, and 50 mM octylglucoside). The octylglucoside extract was incubated with 1 ml GRGDSPK-coupled Sepharose 4B overnight at 4° C. After washing with 15 ml column buffer (same as lysis buffer except it contained 25 mM octylglucoside), bound αllbβ3 was eluted with 1.7 mM H12 (2 ml) in column buffer. The H12 eluate was applied to a Sephacryl S-300 High Resolution column (1.5×95 cm), and αllbβ3 was eluted with 10 mM HEPES, pH 7.4, 0.15 M NaCl, 1 mM CaCl2, 1 mM MgCl2 and 25 mM octylglucoside.
Unactivated αllbβ3 was isolated by the method of Fitzgerald et al., Anal. Biochem. 151:169-177 (1985), with slight modifications. The flow-through fraction of the GRGDSPK-Sepharose column was applied to a concanavalin A-Sepharose 4B column (1×20 cm). Unbound proteins were washed with 50 ml column buffer, and bound αllbβ3 was then eluted with 100 mM mannose dissolved in column buffer. Fractions containing αllbβ3 were further purified on a Sephacryl S-300 High Resolution column
To perform the solid-phase binding assay, purified αllbβ3 was added to wells coated with either Cyr61 or Fisp12 (mCTGF) in the presence or absence of inhibitors and binding was allowed to proceed for 3 hours at 37° C. Unbound receptor was removed and the wells wee washed twice with HEPES-Tyrode's Buffer. The binding of purified αllbβ3 to Cyr61 or Fisp12/mCTGF immobilized onto microtiter wells was detected with ^125I-mAb15.

[1] = system: 1064SK primary human foreskin fibroblasts; test: Fibroblast adhesion assay (methylene blue, A620); assay type: cell-based
Description: The ability of Cyr61 to mediate cell adhesion in normal fibroblasts was investigated. Microtiter wells were coated with purified recombinant Cyr61 protein, and 1064SK primary human foreskin fibroblasts were allowed to adhere under serum-free conditions. […] 50 μl cell suspensions were plated on microtiter wells coated with varying concentrations (0.5-5.0 μg/ml) of Cyr61 protein. After incubation at 37° C. for 30 minutes, adherent cells were fixed and stained with methylene blue.
In another experiment, microtiter wells were coated with either BSA, Cyr61 (2 μg/ml), or vitronectin (VN; 0.5 μg/ml) and blocked with affinity-purified anti-Cyr61 antibodies for one hour at 37° C. before 1064SK cells were plated.
The effects of divalent cations in cell adhesion to Cyr61 was also investigated. […] Data are means from triplicate determinations. […] Inhibition by Ca^2+ is characteristic of adhesion through some members of the β1 family of integrins, including receptors that bind type I collagen, laminin, and vitronectin (integrins α2β1, α6β1, and αVβ1) in fibroblasts, as well as the lymphocyte-specific integrin αLβ2.
The effects of RGD peptides on Cyr61-mediated fibroblast binding was tested by plating cells in wells coated with Cyr61 (2 μg/ml). Type I collagen (2 μg/ml) or vitronectin (0.5 μg/ml), 2 mM GRGDSP or GRGESP peptide was then added.
Cells were also pre-incubated with 40 μg/ml monoclonal antibodies against the integrin α5 or the integrin αV subunits at room temperature for 30 minutes, then plated on wells coated with Cyr61 (2 μg/ml), vitronectin (0.5 μg/ml) or fibronectin (FN, 1 μg/ml). […] The data are means, representative of three experiments.
The 1064 SK cells were also analyzed using the monoclonal antibody JBIA, which binds the β1 integrin subunit. Cells were pre-incubated with the antibody (50 μg/ml) before plating on microtiter wells coated with Cyr61 (2 μg/ml), Type I collagen (2 μg/ml), or vitronectin (0.5 μg/ml). […] Data are means, representative of three experiments.
To identify the specific β1 integrin that mediates fibroblast adhesion to Cyr61, the inhibitory effects of function-blocking monoclonal antibodies were tested against various integrin α subunits. […] The data are means, representative of at least three experiments.

HUVE cells = test: Fisp12 cell attachment assay, HUVE cells; assay type: cell-based, human; settings: EDTA added to culture medium; cell type not stated
Description: The capacity of Fisp12 to affect cell adhesion was also investigated. Fisp12 cell attachment assays were performed essentially as described (Oliver et al., [1989]). 96-well immunological plates were coated for 16 hours at 4° C. with 20 μg/ml Cyr61, Fisp12 or fibronectim (Gibco BRL) in PBS containing 0.1 mg/ml BSA and blocked with 10 mg/ml BSA for 1 hour at room temperature. HUVE cells were plated at 10^4 cells/well in F12K media with 10% FBS (Hyclone Laboratories, Inc., Logan, Utah); NIH 3T3 fibroblasts were plated at 3×10^4 cells/well and Mv1Lu cells were plated at 5×10^4 cells/well in minimal essential medium (MEM) with 10% FBS. After 1 hour incubation cells were fixed, stained with methylene blue and quantified as described (Oliver et al., [1989]). Cell spreading was examined on cells plated on 100 mm polystyrene petri dishes coated with 2.5 ml of a 20 μg/ml solution of Cyr61, Fisp12 or fibronectin. 10^7 cells were plated on each dish and cell spreading was analyzed 90 minutes after plating by microscopy at 100× magnification.

Limb mesenchymal cells [2] = test: Limb bud mesenchymal cell attachment; assay type: cell-based, mouse; settings: within 1 hour of plating
Description: Cyr61, fibronectin (Gibco), or tenascin (Gibco) were diluted in 0.1% protease-free bovine serum albumin (BSA) in PBS with 0.5 mM PMSF, to a final concentrations of 10 or 50 μg/ml. A 10 μl drop/well was placed in a non-tissue culture treated 24-well plate (Corning), and incubated at room temperature for 2 hours. The wells were blocked with 1% BSA in PBS for 1 hour at room temperature, and rinsed with serum-free MEM (Modified Eagle's Medium). Limb mesenchymal cells, suspended at 5×10^5 cell/ml in serum-free MEM, were added at a volume of 400 μl/well, and incubated at 37° C., 5% CO2 for 1 or 3 hours. At each time point, the cell suspension was removed, the wells were rinsed with MEM and the remaining adherent cells were photographed.

Limb mesenchymal cells [3] = settings: 50 μg/ml (200 nM), literature; cited from earlier work
[4] = EDTA 5 mM, RGDS 0.5 mM, LM609 ascites 1:200

T1 sequence (P06756 31-889 limits assumed): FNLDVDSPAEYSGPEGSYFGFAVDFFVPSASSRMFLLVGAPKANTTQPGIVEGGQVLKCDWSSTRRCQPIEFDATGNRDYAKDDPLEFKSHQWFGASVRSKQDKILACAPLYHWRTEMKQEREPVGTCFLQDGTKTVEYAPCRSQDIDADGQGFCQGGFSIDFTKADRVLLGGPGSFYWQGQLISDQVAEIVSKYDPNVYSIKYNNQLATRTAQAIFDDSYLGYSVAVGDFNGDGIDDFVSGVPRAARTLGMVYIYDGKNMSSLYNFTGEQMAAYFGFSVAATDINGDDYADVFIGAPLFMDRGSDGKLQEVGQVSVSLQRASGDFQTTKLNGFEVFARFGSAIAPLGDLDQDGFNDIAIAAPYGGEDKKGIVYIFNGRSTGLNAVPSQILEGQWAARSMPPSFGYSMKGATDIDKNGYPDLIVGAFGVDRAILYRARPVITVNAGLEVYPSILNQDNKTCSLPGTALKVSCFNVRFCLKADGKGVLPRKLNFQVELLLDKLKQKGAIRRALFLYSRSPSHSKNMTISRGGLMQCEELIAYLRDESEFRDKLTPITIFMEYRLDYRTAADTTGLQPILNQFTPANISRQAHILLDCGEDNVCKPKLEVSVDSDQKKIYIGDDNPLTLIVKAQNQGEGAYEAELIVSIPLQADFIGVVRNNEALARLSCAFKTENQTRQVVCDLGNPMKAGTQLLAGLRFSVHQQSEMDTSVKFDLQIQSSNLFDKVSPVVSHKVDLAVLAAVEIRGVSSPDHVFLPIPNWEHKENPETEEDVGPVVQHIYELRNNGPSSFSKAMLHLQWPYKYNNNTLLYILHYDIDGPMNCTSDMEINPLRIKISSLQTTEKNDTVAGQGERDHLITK
T1 sequence (P06756 891-1048 partner limits assumed): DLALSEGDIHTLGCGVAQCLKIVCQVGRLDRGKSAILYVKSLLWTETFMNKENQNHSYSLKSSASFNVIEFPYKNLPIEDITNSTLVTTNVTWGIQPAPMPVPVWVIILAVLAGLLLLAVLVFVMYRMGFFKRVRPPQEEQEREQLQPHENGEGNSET
T1 sequence (P05106 27-788): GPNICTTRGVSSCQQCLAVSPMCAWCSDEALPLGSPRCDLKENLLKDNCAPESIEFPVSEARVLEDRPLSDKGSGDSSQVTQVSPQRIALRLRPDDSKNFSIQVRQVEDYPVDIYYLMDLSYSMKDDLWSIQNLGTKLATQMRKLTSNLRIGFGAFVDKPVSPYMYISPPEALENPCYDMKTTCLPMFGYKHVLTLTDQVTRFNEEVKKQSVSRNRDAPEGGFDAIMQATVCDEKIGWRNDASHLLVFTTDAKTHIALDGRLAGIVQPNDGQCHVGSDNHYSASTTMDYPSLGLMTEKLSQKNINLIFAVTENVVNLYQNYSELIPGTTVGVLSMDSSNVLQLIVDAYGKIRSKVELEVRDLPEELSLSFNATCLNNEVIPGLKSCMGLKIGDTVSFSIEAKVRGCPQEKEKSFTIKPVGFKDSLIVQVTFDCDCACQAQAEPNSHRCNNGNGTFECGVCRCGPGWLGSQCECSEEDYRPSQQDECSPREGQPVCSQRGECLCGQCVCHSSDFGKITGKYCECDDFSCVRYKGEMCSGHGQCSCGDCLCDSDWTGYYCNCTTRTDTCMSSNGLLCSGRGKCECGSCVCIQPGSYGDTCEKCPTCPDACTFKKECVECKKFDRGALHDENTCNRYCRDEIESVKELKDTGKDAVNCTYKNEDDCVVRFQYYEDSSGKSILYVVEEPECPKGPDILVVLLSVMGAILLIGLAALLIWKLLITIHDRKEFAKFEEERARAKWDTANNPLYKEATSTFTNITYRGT

Row | Compound | effect of agent on adhesion of ADP-activated platelets to fibrinogen (platelets) | effect of agent on activated αllbβ3 binding to Fisp12/mCTGF and Cyr61 (αllbβ3) | effect of agent on activated platelet adhesion to Cyr61 and Fisp12/mCTGF (platelets) | further results
1 | RGDS | completely inhibited | specifically blocked | – | effect of agent on Cyr61 interaction with αVβ3 (αVβ3 integrin; [4]): inhibited; effect of agent on vitronectin interaction with αVβ3 (αVβ3 integrin; [4]): inhibited
2 | vitronectin: Human plasma vitronectin, serum spreading factor | – | – | – | binding to immobilized αVβ3 integrin (αVβ3 integrin; 1 μg/ml Cyr61 or 0.1 μg/ml vitronectin): bound to the immobilized integrin; inhibition by anti-α6 antibody of binding mediated by the coated protein ([1]; anti-α6 20 μg/ml): 9%
3 | H-HHLGGAKQAGDV-OH [H12] | completely inhibited | effectively inhibited | inhibited platelet adhesion to Cyr61 and Fisp12/mCTGF | –
4 | O=C(O)CN(CCN(CC(=O)O)CC(=O)O)CC(=O)O [EDTA, Ethylenediamine tetraacetic acid] | completely inhibited | – | completely abolished platelet adhesion to both proteins | effect of agent on Fisp12-mediated cell attachment (HUVE cells): inhibited; 1064SK adhesion to Cyr61-coated wells with agent ([1]; Cyr61 2 μg/ml, agent at the level stated in the block, Mg2+ 5.0 mM after EDTA): about 0.12 A620; 1064SK adhesion to Type I collagen-coated wells with agent ([1]; Type I collagen 2 μg/ml): 0.10 A620; 1064SK adhesion to vitronectin-coated wells with agent ([1]; vitronectin 0.5 μg/ml): 0.05 A620
5 | echistatin | completely inhibited | effectively inhibited | completely blocked platelet adhesion to both proteins | –
6 | tenascin: ECM protein (Gibco) | – | – | – | attachment morphology of limb mesenchymal cells (Limb mesenchymal cells [2]): adhered as clusters of rounded cells; increase of chondrogenesis in micromass cultures (Limb mesenchymal cells [3]): 3 fold

— patent publication US7521540B2, “CYR61 compositions and methods” (Munin Corporation, priority 1996, dated 2009)
